What was measured:
Type in all cases: in vivo
[1] = system: green peach aphid, Myzus persicae (Sulzer); assay: Mortality of green peach aphids on infested radish plants after spray treatment; settings: Example 4, Table 4, after 2 days, concentration in label
Experimental: Radish plants were placed in a colony for 4 days for infestation with green peach aphid, Myzus persicae (Sulzer). Treatments were then applied with a hand-held trigger sprayer to wetting on all leaf surfaces. After treatment, plants were randomized on a lab bench in a completely randomized block design. Treatments consisted of 8 replicates of 1 plant each. Mortality was assessed after 2 days by counting the live and dead aphids on all leaves.

[2] = system: twospotted spider mites, Tetranychus urticae Koch; assay: Mortality of adult twospotted spider mites on bush bean leaves after spray treatment; settings: two days after treatment, concentration in label
Experimental: (§1) Adult twospotted spider mites, Tetranychus urticae Koch, were obtained from a colony and 25 mites per leaf were placed on bush bean plants (one leaf per replicate). Mites were allowed to settle overnight and then treatments were applied to wetting on top and bottom leaf surfaces using a hand-held trigger sprayer. After treatment, plants were randomized on a lab bench in a randomized block design. Treatments consisted of 9 replicates of 1 plant each. Mortality was assessed 2 days following treatment.
as §1, with “10” for “9”

[3] = system: Green peach aphids, Myzus persicae (Sulzer); assay: Mortality of green peach aphids sprayed on plate glass (60 seconds exposure); settings: Example 12, Table 12; after 1 day; concentration in label
Experimental: Green peach aphids, Myzus persicae (Sulzer), were obtained from a colony and transferred to plate glass for treatment. Treatments were then applied with a hand-held trigger sprayer to wetting and aphids remained exposed to treatments for 60 seconds. After treatment, aphids were transferred to filter paper lined petri dishes and dishes were randomized on a lab bench in a completely randomized design. Treatments consisted of 10 replicates of 10 aphids each. Mortality was assessed after 1 day.

In the case of `S1SSSSSSS1` [Powdered Sulfur (0.2% ai sulfur), Sulfur], the “Observed % Mortality” value [1] is reported as 1.3%, the “Observed % Mortality” value ([2]; Example 2, Table 2, adult female mites on bush bean) is reported as 4.5% and the “Observed % Mortality” value ([2]; Example 3, Table 3, mites on bush bean) is reported as 2.6%.

`CC1(C)C(C=C(Cl)Cl)C1C(=O)OCc1cccc(Oc2ccccc2)c1` (centres unmarked) [Permethrin] was tested, and the “Observed % Mortality” value [3] was 84.0% and the “Observed % Mortality” value ([2]; Example 11, Table 11, adult female mites on bush bean) was 26.2%.
